Test results from ChEMBL document CHEMBL6182851, “Discovery of dual CDK4/6 and BRD4 inhibitor as apoptosis and autophagy inducers against NSCLC in vitro and in vivo” (Eur J Med Chem, 2025).
Active and inactive are the calls of the source. The calls are words filed in the database; no cut-off is given here.

Experiments:
[1] = MRT (0 to infinity) in male Sprague-Dawley rat at 5 mg/kg, iv measured up to 24 hrs by LC-MS/MS analysis; type: ADME, organism-based; conditions: in vivo
NCI-H460 [2] = assay: Antitumor activity against human NCI-H460 cells xenografted in female BALB/c nude mouse assessed as reduction in c-Myc expression at 50 mg/kg, ip administered for 21 consecutive days by immunohistochemical analysis; type: functional, organism-based; conditions: time 21.0 day
NCI-H460 [3] = assay: Antiproliferative activity against human NCI-H460 cells assessed as decrease in c-myc expression at 2 to 8 uM treated for 24 hrs by immunofluorescence analysis; type: functional, cell-based; conditions: dose 2-8 µM
NCI-H460 [4] = assay: Induction of autophagy in human NCI-H460 cells assessed as colocalization of LC3B site with LAMP1 protein incubated for 24 hrs by immunofluorescence analysis; type: functional, cell-based; conditions: dose 2-8 µM
NCI-H460 [5] = assay: Antiproliferative activity against human NCI-H460 cells assessed as decrease in p-Rb expression at 2 to 8 uM treated for 24 hrs by immunofluorescence analysis; type: functional, cell-based; conditions: dose 2-8 µM
NCI-H460 [6] = assay: Induction of autophagy in human NCI-H460 cells assessed as upregulation of beclin 1 level; type: functional, cell-based
NCI-H460 [7] = assay: Induction of apoptosis in human NCI-H460 cells assessed as necrotic cells at 2 uM incubated for 48 hrs by Annexin V-PE/7-AAD staining based flow cytometric analysis (reference value: 0.79 %); type: functional
L02 [8] = assay: Cytotoxicity against human LO2 cells assessed as inhibition of cell viability at 5 to 10 uM incubated for 48 hrs by MTT assay; type: toxicity, cell-based; conditions: l02, 48 h, dose 5-10 µM
NCI-H460 [9] = assay: Induction of cell cycle arrest in human NCI-H460 cells assessed as accumulation of cells at G1 phase at 2 uM incubated for 48 hrs by PI staining based flow cytometric analysis (reference value: 56.7 %); type: functional
NCI-H460 [10] = assay: Induction of cell cycle arrest in human NCI-H460 cells assessed as accumulation of cells at S phase at 8 uM incubated for 48 hrs by PI staining based flow cytometric analysis (reference value: 33.3 %); type: functional
NCI-H460 [11] = assay: Induction of autophagy in human NCI-H460 cells assessed as increase in vacuole formation incubated for 12 hrs by microscopic analysis; type: functional, cell-based
[12] = target: T1, Cyclin-dependent kinase 4 (Homo sapiens, UniProt P11802); assay: Binding affinity to CDK4 in human NCI-H460 cells assessed as increase in thermal stabilization at 38 to 62 degreeC at 1 uM pretreated for 6 hrs followed by heat exposure for 3 mins and subsequently incubated at room temperature for 3 mins by CETSA; type: cell-based; conditions: time 366.0 min
NCI-H460 [13] = assay: Induction of cell cycle arrest in human NCI-H460 cells assessed as accumulation of cells at G1 phase at 4 uM incubated for 48 hrs by PI staining based flow cytometric analysis (reference value: 56.7 %); type: functional
[14] = AUC (0 to infinity) in male Sprague-Dawley rat at 5 mg/kg, iv measured up to 24 hrs by LC-MS/MS analysis; type: ADME, organism-based; conditions: in vivo
NCI-H460 [15] = assay: Antitumor activity against human NCI-H460 cells xenografted in female BALB/c nude mouse at 25 mg/kg, ip administered for 21 consecutive days; type: functional, organism-based; conditions: time 21.0 day
MCF-10A = assay: Cytotoxicity against human MCF-10A cells assessed as cell viability at 5 to 10 uM incubated for 48 hrs by MTT assay; type: toxicity, cell-based; conditions: dose 5-10 µM
NCI-H460 [16] = assay: Cytotoxicity against human NCI-H460 cells measured up to 8 days; type: functional, cell-based; conditions: dose 2-8 µM, time <= 8.0 day
NCI-H460 [17] = assay: Induction of cell cycle arrest in human NCI-H460 cells assessed as accumulation of cells at S phase at 2 uM incubated for 48 hrs by PI staining based flow cytometric analysis (reference value: 33.3 %); type: functional
NCI-H460 [18] = assay: Induction of apoptosis in human NCI-H460 cells assessed as necrotic cells at 4 uM incubated for 48 hrs by Annexin V-PE/7-AAD staining based flow cytometric analysis (reference value: 0.79 %); type: functional
NCI-H460 [19] = assay: Induction of apoptosis in human NCI-H460 cells assessed as late apoptotic cells at 8 uM incubated for 48 hrs by Annexin V-PE/7-AAD staining based flow cytometric analysis (reference value: 3.76 %); type: functional
[20] = Half life in male Sprague-Dawley rat at 5 mg/kg, iv measured up to 24 hrs by LC-MS/MS analysis; type: ADME, organism-based; conditions: in vivo
NCI-H460 [21] = assay: Induction of autophagy in human NCI-H460 cells assessed as production of autophagic vesicles at 4 uM incubated for 24 hrs by transmission electron microscopic analysis; type: functional, cell-based
NCI-H460 [22] = assay: Induction of apoptosis in human NCI-H460 cells assessed as necrotic cells at 8 uM incubated for 48 hrs by Annexin V-PE/7-AAD staining based flow cytometric analysis (reference value: 0.79 %); type: functional
[23] = Toxicity in mouse assessed as histological change in heart at 400 mg/kg, ip measured for 21 days by H and E staining based analysis; type: organism-based; conditions: in vivo, 504 h, time 21 day
NCI-H460 [24] = assay: Induction of apoptosis in human NCI-H460 cells assessed as early apoptotic cells at 4 uM incubated for 48 hrs by Annexin V-PE/7-AAD staining based flow cytometric analysis (reference value: 3.58 %); type: functional
NCI-H460 [25] = assay: Induction of apoptosis in human NCI-H460 cells assessed as late apoptotic cells at 4 uM incubated for 48 hrs by Annexin V-PE/7-AAD staining based flow cytometric analysis (reference value: 3.76 %); type: functional
NCI-H460 [26] = assay: Antitumor activity against human NCI-H460 cells xenografted in female BALB/c nude mouse assessed as reduction in P-RB expression at 50 mg/kg, ip administered for 21 consecutive days by immunohistochemical analysis; type: functional, organism-based; conditions: time 21.0 day
NCI-H460 [27] = assay: Induction of apoptosis in human NCI-H460 cells assessed as early apoptotic cells at 8 uM incubated for 48 hrs by Annexin V-PE/7-AAD staining based flow cytometric analysis (reference value: 3.58 %); type: functional
NCI-H460 [28] = assay: Induction of cell cycle arrest in human NCI-H460 cells assessed as accumulation of cells at G2 phase at 2 uM incubated for 48 hrs by PI staining based flow cytometric analysis (reference value: 11.0 %); type: functional
NCI-H460 [29] = assay: Induction of autophagy in human NCI-H460 cells assessed as increase in autophagic vesicles at 4 uM incubated for 24 hrs by transmission electron microscopic analysis; type: functional, cell-based
NCI-H460 [30] = assay: Antitumor activity against human NCI-H460 cells xenografted in female BALB/c nude mouse assessed as decrease in Ki67-positive cells at 50 mg/kg, ip administered for 21 consecutive days by immunohistochemical analysis; type: functional, organism-based; conditions: time 21.0 day
[31] = Toxicity in mouse assessed as histological change in kidney at 400 mg/kg, ip measured for 21 days by H and E staining based analysis; type: organism-based; conditions: in vivo, 504 h, time 21 day
NCI-H460 [32] = assay: cells; conditions: Homo sapiens, NCI-H460, 48 h
Description: Antitumor activity against human NCI-H460 cells assessed as inhibition of cell viability incubated for 48 hrs by MTT assay

L02 [33] = assay: Cytotoxicity against human LO2 cells measured up to 8 days; type: toxicity, cell-based; conditions: l02, 192 h, time < 8 day
[34] = target: T1, Cyclin-dependent kinase 4; assay: Inhibition of CDK4 (unknown origin)
NCI-H460 [35] = assay: Induction of autophagy in human NCI-H460 cells assessed as suspension of dead cells incubated for 12 hrs by microscopic analysis; type: functional, cell-based

T1 sequence (P11802 whole entry): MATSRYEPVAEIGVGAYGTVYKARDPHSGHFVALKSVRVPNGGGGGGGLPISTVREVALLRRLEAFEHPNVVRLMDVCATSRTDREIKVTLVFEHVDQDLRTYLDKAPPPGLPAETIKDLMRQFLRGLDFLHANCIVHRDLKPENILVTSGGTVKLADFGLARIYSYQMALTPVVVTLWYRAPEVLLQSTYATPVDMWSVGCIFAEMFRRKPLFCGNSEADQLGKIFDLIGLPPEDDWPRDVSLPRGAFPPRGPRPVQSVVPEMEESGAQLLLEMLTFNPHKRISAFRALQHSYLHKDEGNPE

For `COc1cc(-c2nc3ccc(F)cc3c(=O)[nH]2)cc(OC)c1OCC(=O)N1CCN(c2ccc(Nc3ncc4cc(C(=O)N(C)C)n(C5CCCC5)c4n3)nc2)CC1`, the MRT inf [1] was 3.04 h, the Activity (NCI-H460 [2]) was “Active” and the Activity (NCI-H460 [3]) was “Active”. For the same compound, the Activity (NCI-H460 [4]) was “Dose-dependent-effect”, the Activity (NCI-H460 [5]) was “Active” and the Activity (NCI-H460 [6]) was “Active”. The Activity (NCI-H460 [7]) was 1.6%, the Activity (L02 [8]) was “Non-toxic” and the Activity (NCI-H460 [9]) was 60.6%. The Activity (NCI-H460 [10]) was 15.8%, the Activity (NCI-H460 [11]) was “Active” and the Activity [12] was “Active”. For the same compound, the Activity (NCI-H460 [13]) was 71.1%, the AUC(0-inf) [14] was 3860 ng·h/mL and the Activity (NCI-H460 [15]) was “Active”. The Activity (MCF-10A) was “Non-toxic”, the Activity (NCI-H460 [16]) was “Time-dependent-effect” and the Activity (NCI-H460 [17]) was 27%. It also gave an Activity (NCI-H460 [18]) of 1.06%, an Activity (NCI-H460 [19]) of 3.07% and a half-life [20] of 7.42 h. The Activity (NCI-H460 [21]) was “Active”, the Activity (NCI-H460 [22]) was 1.17% and the Activity [23] was “Non-toxic”. For the same compound, the Activity (NCI-H460 [24]) was 8.81%, the Activity (NCI-H460 [25]) was 6.56% and the Activity (NCI-H460 [26]) was “Active”. The Activity (NCI-H460 [27]) was 16.9%, the Activity (NCI-H460 [28]) was 11.4% and the Activity (NCI-H460 [29]) was “Active”. The Activity (NCI-H460 [30]) was “Active”, the Activity [31] was “Non-toxic” and the IC50 (NCI-H460 [32]) was 2.21 µM. For the same compound, the Activity (L02 [33]) was “Non-toxic”, the IC50 [34] was 0.0851 µM and the Activity (NCI-H460 [35]) was “Active; Minor Suspension Was Observed”.
